# Laboratory results: US7563805B2, “Tri-, tetra-substituted-3-aminopyrrolidine derivative” (Daiichi Pharmaceutical Co., Ltd., priority 2005, dated 2009)
# Where two headings read alike, the source gives them in different places. Marks after values point to notes of the source that are not given here.
# Key:
# [1] = test system: bone marrow cells (polychromatic erythrocytes); experiment: mouse bone marrow micronucleus test; format: in vivo, Slc:ddY male mice; details: single i.v. dose, 24 h, Example 2: 50, 100 mg/kg, Example 3: 100, 150 mg/kg, Example 9: 50, 100, 150 mg/kg
# Description: The control was 0.1 mol/l NaOH/physiological saline solvent, and the positive control was cyclophosphamide (cyclophoshamide, CP) dissolved and diluted in physiological saline. All samples were sterilized by filtering through Milex GS filter (0.22 μm). Each solution was intravenously administered at a dose of 10 mL/kg in single dose at an administration rate of 0.2 mL/min.
# Bone marrow cells were collected from thigh bone at 24 hours after the administration, and smear preparation was prepared. After staining with acridine orange, 1000 polychromatic erythrocytes per animal were observed under fluorescence microscope to count frequency of micrronucleated polychromatic erythrocyte and ratio of the orthochromatic erythrocytes to the polychromatic erythrocyte in 1000 erythrocytes.
# [2] = male, Crj:CD IGS, rat, in vivo, po, 5 mg/kg
# Description: (§1) The Comparative compound was also evaluated by the same procedure.
# (§2) The test substance was orally administered to fasted rats (7 week old male Crj:CD IGS rats purchased from Charles River Laboratories Japan, Inc.) at a dose of 5 mg/kg.
# (§3) Animals of absorption test group (3 animals per group) were sacrificed by bleeding under etherization at 0.25, 0.5, 1, 2, 4, and 8 hours after the drug administration, and blood, lever, kidney, and lung were collected. The blood was centrifuged (3000 rpm×15 minutes, 4° C.) after coagulation to collect serum. Tissue was homogenized after adding 3 to 5 mL of 0.1 mol/l phosphate buffer (pH 7.0), and the supernatant was collected from the homogenate (3000 rpm×15 minutes, 4° C.).
# (§4) Animals of excretion test group (3 animals per group) were placed in a metabolic cage, and the urine of 0 to 4 hours and 4 to 24 hours after the administration was collected in a water-cooled container. Simultaneously with the collection of the urine, the cage was also washed with about 15 mL of 0.1 mol/l phosphate buffer (pH 7.0) to collect the urine attached to the cage. For evaluation of conjugates such as glucuronide, the collected sample was also aliquoted and hydrolyzed with an equal amount of 1 mol/l aqueous solution of sodium hydroxide, and the hydrolysate was neutralized with 0.5 mol/l hydrochloric acid and measured for its concentration. The concentration was measured by LC-MS/MS method.
# (§5) Pharmacokinetic parameters of the each drug in rat were calculated by from the time course of the average concentration by using pharmacokinetic analysis software PSAG-CP (AS Medica Inc.) in a manner not dependent on the model animal.
# in vivo [3] = details: male, Crj:CD IGS, rat, po, 5 mg/kg
# Description: as §1, §2, §3, §4, §5
# hERG K+ channel = hERG K+ channel (Homo sapiens, UniProt Q12809); experiment: hERG-K^+ channel blocking effect
# E. coli NIHJ = experiment: antibacterial activity (MIC), standard method of Japanese Society of Chemotherapy; details: Escherichia coli
# P. vulgaris, 08601 = experiment: as above; details: Proteus vulgaris, 08601, P. vulgaris
# S. marscecens, 10100 = experiment: as above
# P. aeruginosa, 32104 = experiment: as above; details: Pseudomonas aeruginosa
# P. aeruginosa, 32121 = experiment: as above; details: Pseudomonas aeruginosa
# S. aureus, 209P = experiment: as above; details: Staphylococcus aureus
# S. epidermidis, 56500 = experiment: as above; details: Staphylococcus epidermidis, 56500, S. epidermidis
# E. faecalis, ATCC 19433 = experiment: as above; details: Enterococcus faecalis, ATCC19433, E. faecalis
# [4] = test system: S. aureus, 87037 (LVFX-resistant MRSA); experiment: as above; details: Staphylococcus aureus, MRSA, S. aureus, 87037 (LVFX-resistant MRSA)
# [5] = test system: S. pneumoniae, J24 (penicillin-intermediate resistant bacteria); experiment: as above; details: Streptococcus pneumoniae
# [6] = potential convulsant activity upon intracisternal administration, with and without 4-biphenyl acetic acid (BPAA); details: 5 μg/5 μL/mouse i. cist
# Description: The potential convulsant activity upon intracisternal administration to mouse was also evaluated for the concomitant and administration with 4-biphenyl acetic acid (BPAA: an active metabolite of fenbufen) and in the absence of such concomitant administration. The evaluation was conducted by using 4 week old male Slc:ddY mice (6 animals per group) and intracisternally administering the test substance at a dose of 5 μg/5 μL/mouse (solvent, 0.5% lactic acid). Monitoring of the animals for the convulsion and death was started immediately after the administration and continued to 30 minutes after the administration. When used concomitantly with the BPAA, BPAA was suspended in 5% CMC, and 400 mg/kg was orally administered at a solution amount of 10 mL/kg, and the test substance was intracisternally administered 30 minutes after the BPAA.
# [7] = parameters: species or system guinea pigs (Slc:Hertley); details: guinea pig, in vivo
# Description: Guinea pig maximization test (GPMT) which is a widely accepted model for delayed antigenicity was conducted according to the method of Mugnusson et al. (J. invest. Dermatol., 52, 1969) by using a cutaneous sensitization concentration of 1% and a patch sensitization and induction concentration of 10%. At day 1, the animal was sensitized by cutaneously administering the test substance (the quinolone compounds and the control: vehicle, vaseline) (1% solution in physiological saline+FCA emulsion) at the back of the head of the shaved guinea pigs (7 week old male Slc:Hertley). At day 7, lauryl sodium sulfate (SLC) was applied for stimulus (adjuvant treatment), and on the next day, the test substance coated on a wax paper was patched onto the shaved skin to for sealed sensitization, and after 48 hours (at day 10), the waxed paper was removed. The skin reaction was observed upon the removal. On day 22, the test substance (10%) was patched onto the anterior side of the body for induction, and the induction patching was removed after 24 hours. On the next day (at day 24) and the next day (at day 25), the skin reaction was evaluated according to the description of the document as mentioned above. Erythema and edema were scored, and the case with the total score of 2 or higher was evaluated to be positive with the maximum of the score being 7.
# [8] = test system: Mycobacterium tuberculosis (sensitive bacteria); experiment: anti-Mycobacterium tuberculosis (sensitive bacteria) activity, MIC; format: cell-based
# [9] = test system: Mycobacterium tuberculosis (quinolone sensitive); experiment: anti-Mycobacterium tuberculosis (quinolone sensitive) activity, MIC; format: cell-based
# [10] = female, cynomolgus monkey, in vivo, 5 mg/kg
# in vivo [11] = details: female, cynomolgus monkey, po, 5 mg/kg
# 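Wherever Tissue AUC0-8 h, Kidney is given: fasted 7-week-old rats, three per group, tissue sampled up to 8 h post-dose and urine collected over 0–24 h, with conjugates measured after alkaline hydrolysis, concentrations by LC-MS/MS.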
# 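Wherever Tissue AUC0-8 h, Liver is given: fasted 7-week-old rats, three per group, tissue sampled up to 8 h post-dose and urine collected over 0–24 h, with conjugates measured after alkaline hydrolysis, concentrations by LC-MS/MS.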
# 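Wherever Tissue AUC0-8 h, Lung is given: fasted 7-week-old rats, three per group, tissue sampled up to 8 h post-dose and urine collected over 0–24 h, with conjugates measured after alkaline hydrolysis, concentrations by LC-MS/MS.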
# 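Wherever Tissue Cmax, Kidney is given: fasted 7-week-old rats, three per group, tissue sampled up to 8 h post-dose and urine collected over 0–24 h, with conjugates measured after alkaline hydrolysis, concentrations by LC-MS/MS.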
# hERG K+ channel, sequence (Q12809 whole entry): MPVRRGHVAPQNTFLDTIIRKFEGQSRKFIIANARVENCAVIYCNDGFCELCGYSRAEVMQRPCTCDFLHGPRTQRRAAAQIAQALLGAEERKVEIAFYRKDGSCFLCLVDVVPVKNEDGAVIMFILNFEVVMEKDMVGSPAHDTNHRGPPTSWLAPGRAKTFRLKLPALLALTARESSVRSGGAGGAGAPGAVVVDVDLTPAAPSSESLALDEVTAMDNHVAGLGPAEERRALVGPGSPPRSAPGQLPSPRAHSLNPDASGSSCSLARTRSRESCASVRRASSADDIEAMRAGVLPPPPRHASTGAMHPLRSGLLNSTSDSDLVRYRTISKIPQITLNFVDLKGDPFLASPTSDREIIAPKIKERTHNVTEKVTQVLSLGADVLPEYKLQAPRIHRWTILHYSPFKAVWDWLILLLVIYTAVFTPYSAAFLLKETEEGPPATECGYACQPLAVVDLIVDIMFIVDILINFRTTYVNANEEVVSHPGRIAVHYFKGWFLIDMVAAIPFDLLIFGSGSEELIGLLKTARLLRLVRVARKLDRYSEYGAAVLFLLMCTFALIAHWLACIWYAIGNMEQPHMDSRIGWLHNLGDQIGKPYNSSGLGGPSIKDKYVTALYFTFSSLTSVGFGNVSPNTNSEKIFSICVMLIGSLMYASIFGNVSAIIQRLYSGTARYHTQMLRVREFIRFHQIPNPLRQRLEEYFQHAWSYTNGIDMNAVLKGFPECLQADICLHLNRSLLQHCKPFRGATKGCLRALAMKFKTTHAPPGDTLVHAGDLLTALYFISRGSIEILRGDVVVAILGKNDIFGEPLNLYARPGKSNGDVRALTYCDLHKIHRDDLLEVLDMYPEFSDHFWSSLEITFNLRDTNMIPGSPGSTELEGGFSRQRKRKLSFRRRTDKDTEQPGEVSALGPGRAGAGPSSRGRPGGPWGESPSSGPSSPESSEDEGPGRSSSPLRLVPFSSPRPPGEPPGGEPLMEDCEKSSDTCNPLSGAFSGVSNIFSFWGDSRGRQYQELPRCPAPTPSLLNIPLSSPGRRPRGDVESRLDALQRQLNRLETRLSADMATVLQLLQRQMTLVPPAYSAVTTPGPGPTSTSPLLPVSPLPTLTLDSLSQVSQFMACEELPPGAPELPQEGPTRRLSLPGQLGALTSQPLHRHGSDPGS
smiles,measurement,setting,value
"COc1c(N2C[C@H](C)[C@@](C)(N)C2)c(F)cc2c(=O)c(C(=O)O)cn([C@@H]3C[C@@H]3F)c12 (single isomer, unassigned) [Example 2, 7-[(3R*,4S*)-3-Amino-3,4-dimethylpyrrolidin-1-yl]-6-fluoro-1-[(1R,2S)-2-fluorocyclopropyl]-8-methoxy-1,4-dihydro-4-oxoquinoline-3-carboxylic acid]","micronucleus induction rate versus control, evaluation result",[1],negative
same,"Recovery (%) in urine in relation to the amount administered, Recovery (%) including conjugate",[2],26.6%
same,"Tissue AUC0-8 h, Kidney",[2],14700 ng·h/mL
same,"Tissue AUC0-8 h, Liver",[2],17400 ng·h/mL
same,"Tissue AUC0-8 h, Lung",[2],8070 ng·h/mL
same,"Tissue Cmax, Kidney",[2],7.78 µg/g
same,"Tissue Cmax, Liver",[2],10.2 µg/g
same,"Tissue Cmax, Lung",[2],2.46 µg/g
same,AUC(0-t),in vivo [3],1310 ng·h/mL
same,Cmax,in vivo [3],670 ng/mL
same,inhibition at 30 µM,hERG K+ channel,3.8 ± 2.1%
same,inhibition at 100 µM,hERG K+ channel,8.5 ± 1.2%
same,inhibition at 300 µM,hERG K+ channel,18.2 ± 4.2%
same,MIC,E. coli NIHJ,0.012 µg/mL
same,MIC,"P. vulgaris, 08601",0.025 µg/mL
same,MIC,"S. marscecens, 10100",0.1 µg/mL
same,MIC,"P. aeruginosa, 32104",0.2 µg/mL
same,MIC,"P. aeruginosa, 32121",0.1 µg/mL
same,MIC,"S. aureus, 209P",0.025 µg/mL
same,MIC,"S. epidermidis, 56500",0.05 µg/mL
same,MIC,"E. faecalis, ATCC 19433",0.2 µg/mL
same,MIC,[4],0.78 µg/mL
same,MIC,[5],0.1 µg/mL
"O=C(O)c1cn(C2CC2)c2cc(N3CCNCC3)c(F)cc2c1=O [CPFX, ciprofloxacin, reference compound]",MIC,E. coli NIHJ,≤ 0.003 µg/mL
same,MIC,"P. vulgaris, 08601",≤ 0.003 µg/mL
same,MIC,"S. marscecens, 10100",0.025 µg/mL
same,MIC,"P. aeruginosa, 32104",0.05 µg/mL
same,MIC,"P. aeruginosa, 32121",0.025 µg/mL
same,MIC,"S. aureus, 209P",0.1 µg/mL
same,MIC,"S. epidermidis, 56500",0.2 µg/mL
same,MIC,"E. faecalis, ATCC 19433",0.78 µg/mL
same,MIC,[4],> 6.25 µg/mL
same,MIC,[5],0.39 µg/mL
same,number of dead animals,"[6]; (with BPAA 400 mg/kg oral, 30 minutes before)",6/6**^## (6/6**^##)
same,number of dead animals,[6]; (without BPAA),0/6 (0/6)
COc1c(N2C[C@@H](N)C3(CC3)C2)c(F)cc2c(=O)c(C(=O)O)cn([C@@H]3C[C@@H]3F)c12 [Comparative compound 1],Evaluation in GPMT,[7],Positive
same,Average score in GPMT,"[7]; male, Slc:Hertley",6.8
same,MIC,"[8]; H37RV, strain H37Rv",0.06 µg/mL
same,MIC,[8]; strain Kurono,0.06 µg/mL
same,MIC,[8]; strain Ravenel,0.06 µg/mL
same,MIC,[8]; strain TB-s 2,0.125 µg/mL
same,MIC,[8]; strain TB-s 3,0.125 µg/mL
same,MIC,[8]; strain TB-s 4,0.125 µg/mL
same,MIC,[8]; strain TB-s 5,0.06 µg/mL
same,MIC,[8]; strain TB-s 6,0.125 µg/mL
same,MIC,[8]; strain TB-s 7,0.25 µg/mL
same,MIC,[8]; strain TB-s 8,0.06 µg/mL
same,MIC,[8]; strain TB-s 9,0.125 µg/mL
same,MIC,[8]; strain TB-s 10,0.06 µg/mL
same,MIC,[8]; strain TB-s 11,0.125 µg/mL
same,MIC,[8]; strain TB-s 12,0.25 µg/mL
same,MIC,[8]; strain TB-s 13,0.125 µg/mL
same,MIC,[8]; strain TB-s 14,0.125 µg/mL
same,MIC,[8]; strain TB-s 15,0.125 µg/mL
same,MIC,[8]; strain TB-s 16,0.125 µg/mL
same,MIC,[8]; strain TB-s 17,0.125 µg/mL
same,MIC,[8]; strain TB-s 18,0.125 µg/mL
same,MIC,[8]; strain TB-s 19,0.125 µg/mL
same,MIC,[8]; strain TB-s 20,0.25 µg/mL
same,MIC,[8]; strain TB-s 21,0.125 µg/mL
same,MIC,[8]; strain TB-s 22,0.06 µg/mL
same,MIC,[9]; strain 1 (QR-3),1 µg/mL
same,MIC,[9]; strain 2 (QR-6),128 µg/mL
same,MIC,[9]; strain 3 (QR-1),2 µg/mL
same,MIC,[9]; strain 4 (QR-9),32 µg/mL
same,MIC,[9]; strain MDR 1,0.5 µg/mL
same,MIC,[9]; strain MDR 3,0.5 µg/mL
same,MIC,[9]; strain MDR 4,0.5 µg/mL
same,MIC,[9]; strain MDR 5,1 µg/mL
same,MIC,[9]; strain MDR 7,0.5 µg/mL
same,MIC,[9]; strain MDR 9,0.5 µg/mL
same,MIC,[9]; strain MDR 12,0.5 µg/mL
same,MIC,[9]; strain S 1,2 µg/mL
same,"Recovery (%) in urine in relation to the amount administered, Recovery (%) including conjugate",[2],23.1%
same,Serum AUC0-8 h,[2],1590 ng·h/mL
same,"Tissue AUC0-8 h, Kidney",[2],19300 ng·h/mL
same,"Tissue AUC0-8 h, Liver",[2],15000 ng·h/mL
same,"Tissue AUC0-8 h, Lung",[2],6770 ng·h/mL
same,"Tissue Cmax, Kidney",[2],8.63 µg/g
same,"Tissue Cmax, Liver",[2],9.3 µg/g
same,"Tissue Cmax, Lung",[2],2.59 µg/g
same,"Recovery (%) in urine in relation to the amount administered, Recovery (%) including conjugate",[10],32.9%
same,Cmax,in vivo [3],820 ng/mL
same,AUC(0-t),in vivo [11],5110 ng·h/mL
same,Cmax,in vivo [11],840 ng/mL
same,half-life,in vivo [11],5 h
same,inhibition at 30 µM,hERG K+ channel,6.7 ± 8.3%
same,inhibition at 100 µM,hERG K+ channel,13.5 ± 3.1%
same,inhibition at 300 µM,hERG K+ channel,24.8 ± 16.5%
same,MIC,E. coli NIHJ,≤ 0.003 µg/mL
same,MIC,"P. vulgaris, 08601",0.012 µg/mL
same,MIC,"S. marscecens, 10100",0.05 µg/mL
same,MIC,"P. aeruginosa, 32104",0.1 µg/mL
same,MIC,"P. aeruginosa, 32121",0.05 µg/mL
same,MIC,"S. aureus, 209P",0.006 µg/mL
same,MIC,"S. epidermidis, 56500",0.05 µg/mL
same,MIC,"E. faecalis, ATCC 19433",0.1 µg/mL
same,MIC,[4],0.39 µg/mL
same,MIC,[5],0.025 µg/mL
"Cc1c(N2C[C@H](CF)[C@](C)(N)C2)c(F)cc2c(=O)c(C(=O)O)cn([C@@H]3C[C@@H]3F)c12 [Example 22, 7-[(3S,4S)-3-Amino-4-fluoromethyl-3-methylpyrrolidin-1-yl]-6-fluoro-1-[(1R,2S)-2-fluoro-1-cyclopropyl]-8-methyl-1,4-dihydro-4-oxoquinoline-3-carboxylic acid]",melting point,,135 to 137 °C
same,inhibition at 30 µM,hERG K+ channel,-1.3 ± 10.1%
same,inhibition at 100 µM,hERG K+ channel,-0.6 ± 7.9%
same,inhibition at 300 µM,hERG K+ channel,21.5 ± 6.9%
same,MIC,E. coli NIHJ,0.012 µg/mL
same,MIC,"P. vulgaris, 08601",0.012 µg/mL
same,MIC,"S. marscecens, 10100",0.1 µg/mL
same,MIC,"P. aeruginosa, 32104",0.39 µg/mL
same,MIC,"P. aeruginosa, 32121",0.1 µg/mL
same,MIC,"S. aureus, 209P",0.025 µg/mL
same,MIC,"S. epidermidis, 56500",0.05 µg/mL
same,MIC,"E. faecalis, ATCC 19433",0.2 µg/mL
same,MIC,[4],0.78 µg/mL
same,MIC,[5],0.1 µg/mL
